Source: ChEMBL document CHEMBL3872241, “Synthesis and bioactivity evaluation of 2,3-diaryl acrylonitrile derivatives as potential anticancer agents” (Bioorg Med Chem Lett, 2017)

Tests used:
[1] = Cytotoxicity against human Bel7402 cells assessed as cell growth inhibition after 48 hrs by MTT assay; type: functional, cell-based; details: Bel-7402, 48 h
[2] = Cytotoxicity against human HeLa cells assessed as cell growth inhibition at 100 uM after 48 hrs by MTT assay; type: functional; details: read-out: GI
[3] = Cytotoxicity against human HCT116 cells assessed as cell growth inhibition after 48 hrs by MTT assay; type: functional, cell-based; details: HCT-116, 48 h
[4] = Cytotoxicity against human L02 cells assessed as cell growth inhibition at 100 uM after 48 hrs by MTT assay; type: toxicity, cell-based; details: read-out: GI
[5] = Cytotoxicity against human Bel7402 cells assessed as cell growth inhibition at 100 uM after 48 hrs by MTT assay; type: functional; details: Bel-7402, 48 h, read-out: GI
[6] = Cytotoxicity against human L02 cells assessed as cell growth inhibition after 48 hrs by MTT assay; type: toxicity, cell-based
[7] = Cytotoxicity against human HeLa cells assessed as cell growth inhibition after 48 hrs by MTT assay; type: functional, cell-based
[8] = Cytotoxicity against human HCT116 cells assessed as cell growth inhibition at 100 uM after 48 hrs by MTT assay; type: functional; details: HCT-116, 48 h, read-out: GI
HCT-116 = assay: Selectivity index, ratio of IC50 for human L02 cells to IC50 for human HCT116 cells; type: functional
Bel-7402 = assay: Selectivity index, ratio of IC50 for human L02 cells to IC50 for human Bel7402 cells; type: functional

Row | Structure (SMILES) | IC50 [1] [µM] | inhibition of growth at 100 µM [2] [%] | IC50 [3] [µM] | inhibition at 48 h, 100 µM [4] [%] | inhibition of growth at 100 µM [5] [%] | IC50 at 48 h [6] [µM] | IC50 [7] [µM] | inhibition of growth at 100 µM [8] [%] | Ratio IC50 (HCT-116) | Ratio IC50 (Bel-7402)
1 | COc1cc(OC)cc(/C(C#N)=C/c2ccc(OCc3ccccc3)cc2)c1 | > 100 | 20.7 | > 100 | 32.7 | 18.6 | > 100 | > 100 | 18.7 | – | –
2 | COc1cc(OC)cc(/C(C#N)=C/c2cccc(C(F)(F)F)c2)c1 | > 100 | 18.3 | > 100 | 29.4 | 20 | > 100 | > 100 | 28.7 | – | –
3 | COc1cc(OC)cc(/C(C#N)=C/c2ccco2)c1 | 75.7 | – | 3.31 | 38.5 | – | > 100 | 112 | – | >30.21 | >1.32
4 | COc1cc(OC)cc(/C(C#N)=C/c2ccccc2Br)c1 | > 100 | 37.2 | 8.44 | 8.2 | 17.4 | > 100 | > 100 | – | >11.84 | –
5 | CCc1ccc(/C=C(\C#N)c2cc(OC)cc(OC)c2)cc1 | 0.35 | 40.6 | 1.3 | 32.8 | – | > 100 | > 100 | – | >76.92 | >285.71
6 | COc1cc(OC)cc(/C(C#N)=C/c2cccs2)c1 | 36.7 | 42.2 | 31.6 | 41.7 | – | > 100 | > 100 | – | >3.16 | >2.73
7 | CCCOc1ccc(/C=C(\C#N)c2cc(OC)cc(OC)c2)cc1 | 42 | 27.6 | 14.2 | 34.4 | – | > 100 | > 100 | – | >7.06 | >2.38
8 | COc1cc(OC)cc(/C(C#N)=C/c2ccc(Cl)cc2)c1 | 8.04 | – | 43.3 | 33.6 | – | > 100 | 15.9 | – | >2.31 | >12.43
9 | COc1cc(OC)cc(/C(C#N)=C/c2ccccc2C(F)(F)F)c1 | > 100 | 4.9 | > 100 | 33.6 | 11.4 | > 100 | > 100 | 26.6 | – | –
10 | COc1cc(OC)cc(/C(C#N)=C/c2c(F)cccc2Cl)c1 | > 100 | 35.9 | > 100 | 41.8 | 11.1 | > 100 | > 100 | 32.9 | – | –
11 | COc1cc(OC)cc(/C(C#N)=C/c2cccc(Br)c2)c1 | > 100 | 40.2 | > 100 | 43.2 | 19.8 | > 100 | > 100 | 38.2 | – | –
12 | COc1cc(OC)cc(/C(C#N)=C/c2cc(OC)c(OC)c(OC)c2)c1 | > 100 | 24.9 | > 100 | 11.6 | 22.3 | > 100 | > 100 | 24.1 | – | –
13 | COc1cc(OC)cc(/C(C#N)=C/c2ccccc2F)c1 | 72.6 | 44.4 | 12.2 | 34.6 | – | > 100 | > 100 | – | >8.19 | >1.38
14 | COc1cccc(/C=C(\C#N)c2cc(OC)cc(OC)c2)c1 | > 100 | 36.4 | > 100 | 19.5 | 12.4 | > 100 | > 100 | 41.1 | – | –
15 | COc1cc(OC)cc(/C(C#N)=C/c2ccccn2)c1 | 80.5 | – | 5.15 | – | – | 75.5 | 56 | – | 14.66 | 0.94
16 | COc1cc(OC)cc(/C(C#N)=C/c2ccc(N(C)C)cc2)c1 | 1.74 | 44.4 | 0.59 | 26.8 | – | > 100 | > 100 | – | >169.49 | >57.47
17 | CCOc1cccc(/C=C(\C#N)c2cc(OC)cc(OC)c2)c1 | > 100 | 8.9 | > 100 | 18.5 | 5.1 | > 100 | > 100 | 38.8 | – | –
18 | COc1cc(OC)cc(/C(C#N)=C/c2c(C)cc(C)cc2C)c1 | > 100 | 2.7 | > 100 | 28.1 | 13.4 | > 100 | > 100 | 28.9 | – | –
19 | COc1cc(OC)cc(/C(C#N)=C/c2cccc(F)c2)c1 | 61.3 | 41.7 | 38 | 96 | – | 96 | > 100 | – | >2.63 | >1.63
20 | COc1cc(OC)cc(/C(C#N)=C/c2ccc(C)cc2)c1 | 0.59 | 38.6 | 2 | 23.1 | – | > 100 | > 100 | – | >50 | >169.49
21 | COc1cc(OC)cc(/C(C#N)=C/c2ccc(C(F)(F)F)cc2)c1 | 27.6 | 48.2 | 21.8 | 22.9 | – | > 100 | > 100 | – | >4.58 | >3.62
22 | COc1cc(OC)cc(/C(C#N)=C/c2ccccc2Cl)c1 | 28.5 | – | 8.64 | 11.8 | – | > 100 | 28.2 | – | >11.57 | >3.51
23 | CCCOc1ccccc1/C=C(\C#N)c1cc(OC)cc(OC)c1 | > 100 | – | > 100 | 6.4 | 4.9 | > 100 | > 100 | 27.7 | – | –
24 | COc1cc(OC)cc(/C(C#N)=C/c2cccc3ccccc23)c1 | 26.4 | 44.9 | 20.4 | – | – | 73.6 | > 100 | – | 3.59 | 2.78
